In PMC7272483, “Insights into the pH-dependent, extracellular sucrose utilization and concomitant levan formation by Gluconobacter albidus TMW 2.1191” (Antonie Van Leeuwenhoek, 2020):

Molecular target: T1, levansucrase of G. albidus TMW 2.1191 (Gluconobacter albidus, UniProt A0A149SZ56)
T1 construct: gene lsc-2; cloned levansucrase gene expressed from pBAD in E. coli Top 10, crude lysate (Ni-NTA purification failed); native released enzyme ~48 kDa monomer, also tested in crude buffer supernatant
T1 sequence (A0A149SZ56 1-436): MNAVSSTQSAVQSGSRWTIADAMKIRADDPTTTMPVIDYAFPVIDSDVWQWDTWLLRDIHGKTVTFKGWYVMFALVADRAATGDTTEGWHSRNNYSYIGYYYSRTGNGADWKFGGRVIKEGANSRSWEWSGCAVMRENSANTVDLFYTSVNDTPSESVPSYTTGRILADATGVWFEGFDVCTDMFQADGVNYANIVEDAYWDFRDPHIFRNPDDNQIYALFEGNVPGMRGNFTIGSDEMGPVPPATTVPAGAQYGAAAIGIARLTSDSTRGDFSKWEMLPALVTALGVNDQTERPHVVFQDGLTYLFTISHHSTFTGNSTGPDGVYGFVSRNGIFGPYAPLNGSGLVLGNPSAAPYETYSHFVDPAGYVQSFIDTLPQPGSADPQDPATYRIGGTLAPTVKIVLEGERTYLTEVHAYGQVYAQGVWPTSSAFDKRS
Experiment: glucose/fructose release, enzymatic D-fructose/D-glucose kit
Format: cell-based
Conditions: E. coli lysate with recombinant enzyme; pH 3.0-7.0, 30 °C, 1 h; hydrolysis and transfructosylation

With OC[C@H]1O[C@@](CO)(O[C@H]2O[C@H](CO)[C@@H](O)[C@H](O)[C@H]2O)[C@@H](O)[C@@H]1O [sucrose] the volumetric activity was “the enzyme exhibits comparable activities and Michaelis–Menten kinetics within a broad pH range”.
